Among the data in patent publication US12421208B2, “Chemical compounds” (ASTRAZENECA AB, priority 2020, dated 2025) are IC50 values, retold here.

One assay concerns BRCA2 (−/−) DLD1 cells. In words: PARP proliferation assay (7 day compound dosing), BRCA2 (−/−) DLD1. Particulars: Homo sapiens, DLD-1, 168 h, BRCA2 −/− DLD-1 cells, 7 day dosing; read-out: BRCA2 −/− DLD-1 prolif. 7 d IC50. The assay is classed as cell-based. The protocol: PARP Proliferation Assay (7 Day Compound Dosing)
DLD1 and BRCA2 (−/−) DLD1 cells were harvested to a density of 5000 cells/ml and 2.5E4 cells/ml respectively in complete media, 40 μL/well seeded into 384-well plates (Greiner, Kremsmunster, Austria; 781090) using a Multidrop Combi then incubated at 37° C., 5% CO2 overnight. Next day (Day 1) using a Multidrop Combi add sytoxgreen (5 ul, 2 uM) and saponin (10 ul, 0.25% stock) to a day 0 plate, seal the plate using a black adhesive lid and incubate for >3 h at rt. Cells were imaged using Cell Insight (Thermo Fisher) fitted with a 4× objective. Test compounds are added using an Echo 555 and placed in incubator maintained at 37° C., 5% CO2 and incubated for 7 days. On Day 8 add sytox green (5 ul, 2 uM) and then saponin (10 ul, 0.25% stock) to plates, seal the plate using a black adhesive lid and incubate for >3 h at rt. Read all cells on the Cell Insight with 4× Objective. The rate of proliferation is determined in Genedata by assessing the total cell number output from the Cell Insight for Day 0 and Day 8 plates.

The next assay deals with hERG (Homo sapiens, UniProt Q12809). In words: hERG inhibition. The source says: It is well known that blockade of the cardiac ion channel coded by human ether-n-gogo-related gene (hERG) is a risk factor in drug discovery and development. Blockage of hERG can cause safety problems such as cardiac arrhythmia. Advantageously, the compounds of Formula I have low hERG activity.
In general terms: hERG is a cardiac potassium channel; its block is linked to QT prolongation.

Sequence of hERG (Q12809 whole entry): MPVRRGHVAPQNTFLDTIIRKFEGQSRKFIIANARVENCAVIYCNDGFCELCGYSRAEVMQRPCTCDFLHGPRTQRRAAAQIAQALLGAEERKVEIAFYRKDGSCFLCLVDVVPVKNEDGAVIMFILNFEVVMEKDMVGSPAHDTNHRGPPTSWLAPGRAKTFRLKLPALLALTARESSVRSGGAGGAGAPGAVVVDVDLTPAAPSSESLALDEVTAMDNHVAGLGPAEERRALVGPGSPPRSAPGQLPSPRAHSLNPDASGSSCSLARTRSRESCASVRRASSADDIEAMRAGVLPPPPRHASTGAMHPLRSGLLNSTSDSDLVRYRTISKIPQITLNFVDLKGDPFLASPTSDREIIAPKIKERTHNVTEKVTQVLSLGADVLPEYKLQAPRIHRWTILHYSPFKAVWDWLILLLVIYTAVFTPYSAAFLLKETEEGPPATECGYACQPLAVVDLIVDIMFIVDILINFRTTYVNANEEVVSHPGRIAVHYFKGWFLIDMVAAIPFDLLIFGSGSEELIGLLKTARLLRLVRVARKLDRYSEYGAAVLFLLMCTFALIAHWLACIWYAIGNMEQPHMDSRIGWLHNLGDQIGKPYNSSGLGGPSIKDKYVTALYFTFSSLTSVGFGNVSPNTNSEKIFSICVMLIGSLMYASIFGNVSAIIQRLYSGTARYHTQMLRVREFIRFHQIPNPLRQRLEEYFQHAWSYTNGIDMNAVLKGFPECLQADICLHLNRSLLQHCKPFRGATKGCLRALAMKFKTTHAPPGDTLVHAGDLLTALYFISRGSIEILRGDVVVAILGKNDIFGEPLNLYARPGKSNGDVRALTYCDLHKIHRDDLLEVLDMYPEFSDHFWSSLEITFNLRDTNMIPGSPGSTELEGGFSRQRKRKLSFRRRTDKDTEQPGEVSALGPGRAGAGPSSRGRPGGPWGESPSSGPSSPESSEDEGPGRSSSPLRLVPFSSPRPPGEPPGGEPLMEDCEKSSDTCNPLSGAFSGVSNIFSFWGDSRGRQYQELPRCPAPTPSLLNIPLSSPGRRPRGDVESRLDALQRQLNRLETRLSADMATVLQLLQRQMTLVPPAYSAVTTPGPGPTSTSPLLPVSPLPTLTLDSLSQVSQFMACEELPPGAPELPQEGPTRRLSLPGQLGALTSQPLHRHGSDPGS

Take `CCc1nc2ccc(CN3CCN(c4ccc(C(=O)NC)nc4C)CC3)c(C)c2[nH]c1=O` [Example 42, 5-[4-[(2-ethyl-5-methyl-3-oxo-4H-quinoxalin-6-yl)methyl]piperazin-1-yl]-N,6-dimethyl-pyridine-2-carboxamide]: the IC50 with BRCA2 (−/−) DLD1 cells was determined as 6 nM.

Consider `CCNC(=O)c1ccc(N2CCN(Cc3ccc4nc(C)c(=O)[nH]c4c3F)CC2)c(F)n1` [Example 45, N-ethyl-6-fluoro-5-[4-[(5-fluoro-2-methyl-3-oxo-4H-quinoxalin-6-yl)methyl]piperazin-1-yl]pyridine-2-carboxamide], for which the IC50 in the assay with BRCA2 (−/−) DLD1 cells came to 6 nM. `CCc1nc2ccc(CN3CCN(c4ccc(C(N)=O)nc4)CC3)c(F)c2[nH]c1=O` [Example 25, 5-[4-[(2-ethyl-5-fluoro-3-oxo-4H-quinoxalin-6-yl)methyl]piperazin-1-yl]pyridine-2-carboxamide]: the IC50 in the assay with BRCA2 (−/−) DLD1 cells came out at 297 nM.

With `CNC(=O)c1ccc(N2CCN(Cc3ccc4nc(C(F)(F)F)c(=O)[nH]c4c3F)CC2)c(C)n1` [Example 47, 5-[4-[[5-fluoro-3-oxo-2-(trifluoromethyl)-4H-quinoxalin-6-yl]methyl]piperazin-1-yl]-N,6-dimethyl-pyridine-2-carboxamide], the figures for the IC50 at hERG and in the assay with BRCA2 (−/−) DLD1 cells were greater than 40000 nM and 58 nM, respectively.

For the compound `CNC(=O)c1ccc(N2CCN(Cc3ccc4nc(OC)c(=O)[nH]c4c3F)CC2)c(Cl)n1` [Example 41, 6-chloro-5-[4-[(5-fluoro-2-methoxy-3-oxo-4H-quinoxalin-6-yl)methyl]piperazin-1-yl]-N-methyl-pyridine-2-carboxamide], the IC50 at hERG was greater than 40000 nM; in the assay with BRCA2 (−/−) DLD1 cells, 7 nM. `CNC(=O)c1ccc(N2CCN(Cc3ccc4nc(C(F)F)c(=O)[nH]c4c3F)CC2)c(C)n1` [Example 37, 5-[4-[[2-(difluoromethyl)-5-fluoro-3-oxo-4H-quinoxalin-6-yl]methyl]piperazin-1-yl]-N,6-dimethyl-pyridine-2-carboxamide]: in the assay with BRCA2 (−/−) DLD1 cells, the IC50 worked out at 10 nM. Take `CNC(=O)c1ccc(N2CCN(Cc3ccc4nc(C)c(=O)[nH]c4c3F)CC2)c(C(F)F)n1` [Example 21, 6-(difluoromethyl)-5-[4-[(5-fluoro-2-methyl-3-oxo-4H-quinoxalin-6-yl)methyl]piperazin-1-yl]-N-methyl-pyridine-2-carboxamide]: the IC50 is greater than 40000 nM against hERG and 1420 nM in the assay on BRCA2 (−/−) DLD1 cells. On to `CCNC(=O)c1ccc(N2CCN(Cc3ccc4nc(C)c(=O)[nH]c4c3F)CC2)c(C)n1` [Example 46, N-ethyl-5-[4-[(5-fluoro-2-methyl-3-oxo-4H-quinoxalin-6-yl)methyl]piperazin-1-yl]-6-methyl-pyridine-2-carboxamide], for which, in the assay on BRCA2 (−/−) DLD1 cells, the IC50 was found to be 13 nM. `CCc1nc2ccc(CN3CCN(c4ccc(C(=O)NC)nc4Cl)CC3)c(F)c2[nH]c1=O` [Example 28, 6-chloro-5-[4-[(2-ethyl-5-fluoro-3-oxo-4H-quinoxalin-6-yl)methyl]piperazin-1-yl]-N-methyl-pyridine-2-carboxamide]: the IC50 against hERG was greater than 38000 nM; in the assay with BRCA2 (−/−) DLD1 cells it was 4 nM. For `CNC(=O)c1ccc(N2CCN(Cc3ccc4nc(C)c(=O)[nH]c4c3C)CC2)cn1` [Example 2, 5-[4-[(2,5-dimethyl-3-oxo-4H-quinoxalin-6-yl)methyl]piperazin-1-yl]-N-methyl-pyridine-2-carboxamide] the same measures were greater than 40000 nM and 734 nM.

For the compound `CNC(=O)c1ccc(N2CCN(Cc3ccc4ncc(=O)[nH]c4c3F)CC2)cn1` [Example 33, 5-[4-[(5-fluoro-3-oxo-4H-quinoxalin-6-yl)methyl]piperazin-1-yl]-N-methyl-pyridine-2-carboxamide], the IC50 in the assay on BRCA2 (−/−) DLD1 cells was greater than 30000 nM. The same measure, in the same setting: in the case of `CNC(=O)c1ccc(N2CCN(Cc3ccc4ncc(=O)[nH]c4c3F)CC2)c(F)n1` [Example 36, 6-fluoro-5-[4-[(5-fluoro-3-oxo-4H-quinoxalin-6-yl)methyl]piperazin-1-yl]-N-methyl-pyridine-2-carboxamide] it was 16200 nM; in that of `CCc1nc2ccc(CN3CCN(c4ccc(C(=O)NC)nc4)CC3)c(C)c2[nH]c1=O` [Example 44, 5-[4-[(2-ethyl-5-methyl-3-oxo-4H-quinoxalin-6-yl)methyl]piperazin-1-yl]-N-methyl-pyridine-2-carboxamide], greater than 30000 nM. For `CNC(=O)c1ccc(N2CCN(Cc3ccc4nc(C(C)(F)F)c(=O)[nH]c4c3F)CC2)c(C)n1` [Example 19, 5-[4-[[2-(1,1-difluoroethyl)-5-fluoro-3-oxo-4H-quinoxalin-6-yl]methyl]piperazin-1-yl]-N,6-dimethyl-pyridine-2-carboxamide], the values for the IC50 against hERG and with BRCA2 (−/−) DLD1 cells were greater than 40000 nM and 6 nM, respectively. Regarding `CNC(=O)c1ccc(N2CCN(Cc3ccc4ncc(=O)[nH]c4c3F)CC2)c(Cl)n1` [Example 34, 6-chloro-5-[4-[(5-fluoro-3-oxo-4H-quinoxalin-6-yl)methyl]piperazin-1-yl]-N-methyl-pyridine-2-carboxamide], the IC50 in the assay on BRCA2 (−/−) DLD1 cells amounted to 8440 nM. As for `CNC(=O)c1ccc(N2CCN(Cc3ccc4nc(OC)c(=O)[nH]c4c3F)CC2)cn1` [Example 38, 5-[4-[(5-fluoro-2-methoxy-3-oxo-4H-quinoxalin-6-yl)methyl]piperazin-1-yl]-N-methyl-pyridine-2-carboxamide], the figures for the IC50 on hERG and in the assay on BRCA2 (−/−) DLD1 cells were greater than 40000 nM and 547 nM, respectively.

Take `Cc1nc2ccc(CN3CCN(c4ccc(C(N)=O)nc4F)CC3)c(C)c2[nH]c1=O` [Example 5, 5-[4-[(2,5-dimethyl-3-oxo-4H-quinoxalin-6-yl)methyl]piperazin-1-yl]-6-fluoro-pyridine-2-carboxamide]: the IC50 with BRCA2 (−/−) DLD1 cells came to 2890 nM. With `CNC(=O)c1ccc(N2CCN(Cc3ccc4nc(OC)c(=O)[nH]c4c3F)CC2)c(C)n1` [Example 40, 5-[4-[(5-fluoro-2-methoxy-3-oxo-4H-quinoxalin-6-yl)methyl]piperazin-1-yl]-N,6-dimethyl-pyridine-2-carboxamide], the IC50 at hERG is greater than 40000 nM; with BRCA2 (−/−) DLD1 cells, 7 nM. Turning to `CNC(=O)c1ccc(N2CCN(Cc3ccc4nc(OC)c(=O)[nH]c4c3F)CC2)c(F)n1` [Example 39, 6-fluoro-5-[4-[(5-fluoro-2-methoxy-3-oxo-4H-quinoxalin-6-yl)methyl]piperazin-1-yl]-N-methyl-pyridine-2-carboxamide], the IC50 was greater than 40000 nM on hERG and 8 nM in the assay with BRCA2 (−/−) DLD1 cells. On to `CNC(=O)c1ccc(N2CCN(Cc3ccc4nc(C(F)(F)F)c(=O)[nH]c4c3F)CC2)cn1` [Example 50, 5-[4-[[5-fluoro-3-oxo-2-(trifluoromethyl)-4H-quinoxalin-6-yl]methyl]piperazin-1-yl]-N-methyl-pyridine-2-carboxamide], for which the IC50 is greater than 40000 nM against hERG and 136 nM in the assay on BRCA2 (−/−) DLD1 cells.

As for `CNC(=O)c1ccc(N2CCN(Cc3ccc4nc(C(F)(F)F)c(=O)[nH]c4c3F)CC2)c(Cl)n1` [Example 49, 6-chloro-5-[4-[[5-fluoro-3-oxo-2-(trifluoromethyl)-4H-quinoxalin-6-yl]methyl]piperazin-1-yl]-N-methyl-pyridine-2-carboxamide], the IC50 against hERG was greater than 40000 nM; in the assay with BRCA2 (−/−) DLD1 cells, 41 nM. `CCc1nc2ccc(CN3CCN(c4ccc(C(=O)NC)nc4F)CC3)c(C)c2[nH]c1=O` [Example 43, 5-[4-[(2-ethyl-5-methyl-3-oxo-4H-quinoxalin-6-yl)methyl]piperazin-1-yl]-6-fluoro-N-methyl-pyridine-2-carboxamide]: the IC50 in the assay with BRCA2 (−/−) DLD1 cells came out at 10 nM.
